In ChEMBL document CHEMBL1201862, “PubChem BioAssay data set” (2004):
Active and inactive are the calls of the source.

Tests used:
[1] = target: T1, Sentrin-specific protease 7 (Homo sapiens, UniProt Q9BQF6); type: functional;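 also: Luminescence-based dose-response confirmation of ultra-high-throughput screening hits, measuring inhibition of SENP7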
T1 sequence (Q9BQF6 whole entry): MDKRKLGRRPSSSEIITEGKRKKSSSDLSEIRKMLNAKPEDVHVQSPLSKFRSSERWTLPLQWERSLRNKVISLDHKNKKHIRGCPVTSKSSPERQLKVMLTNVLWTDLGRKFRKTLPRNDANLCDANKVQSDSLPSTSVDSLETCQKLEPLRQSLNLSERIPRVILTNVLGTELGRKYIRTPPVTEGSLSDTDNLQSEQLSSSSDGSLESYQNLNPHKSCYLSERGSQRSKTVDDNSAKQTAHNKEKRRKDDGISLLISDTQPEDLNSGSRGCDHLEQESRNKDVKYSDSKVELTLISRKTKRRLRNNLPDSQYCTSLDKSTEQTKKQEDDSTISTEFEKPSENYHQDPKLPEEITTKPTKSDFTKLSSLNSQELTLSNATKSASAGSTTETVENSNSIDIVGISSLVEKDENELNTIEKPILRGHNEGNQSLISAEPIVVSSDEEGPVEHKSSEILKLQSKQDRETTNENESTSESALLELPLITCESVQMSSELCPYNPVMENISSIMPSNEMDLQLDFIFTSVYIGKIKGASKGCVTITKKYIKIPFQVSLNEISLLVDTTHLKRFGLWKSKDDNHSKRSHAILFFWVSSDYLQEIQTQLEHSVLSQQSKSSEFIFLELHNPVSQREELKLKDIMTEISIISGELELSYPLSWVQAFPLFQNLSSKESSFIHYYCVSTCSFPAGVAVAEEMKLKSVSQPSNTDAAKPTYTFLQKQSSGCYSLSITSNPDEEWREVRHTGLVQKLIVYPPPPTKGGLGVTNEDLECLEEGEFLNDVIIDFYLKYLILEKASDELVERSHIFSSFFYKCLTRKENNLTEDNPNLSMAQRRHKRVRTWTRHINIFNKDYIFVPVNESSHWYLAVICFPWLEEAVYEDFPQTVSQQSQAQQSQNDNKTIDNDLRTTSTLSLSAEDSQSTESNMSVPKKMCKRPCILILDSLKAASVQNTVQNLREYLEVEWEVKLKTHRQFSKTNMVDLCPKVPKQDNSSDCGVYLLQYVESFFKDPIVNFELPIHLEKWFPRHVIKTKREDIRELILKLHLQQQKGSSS

[2] = target: T2, Sentrin-specific protease 6 (Homo sapiens, UniProt Q9GZR1); type: functional;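 also: Luminescence-based dose-response confirmatory assay of SENP6 inhibition, following up an ultra-high-throughput screen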
T2 sequence (Q9GZR1 whole entry): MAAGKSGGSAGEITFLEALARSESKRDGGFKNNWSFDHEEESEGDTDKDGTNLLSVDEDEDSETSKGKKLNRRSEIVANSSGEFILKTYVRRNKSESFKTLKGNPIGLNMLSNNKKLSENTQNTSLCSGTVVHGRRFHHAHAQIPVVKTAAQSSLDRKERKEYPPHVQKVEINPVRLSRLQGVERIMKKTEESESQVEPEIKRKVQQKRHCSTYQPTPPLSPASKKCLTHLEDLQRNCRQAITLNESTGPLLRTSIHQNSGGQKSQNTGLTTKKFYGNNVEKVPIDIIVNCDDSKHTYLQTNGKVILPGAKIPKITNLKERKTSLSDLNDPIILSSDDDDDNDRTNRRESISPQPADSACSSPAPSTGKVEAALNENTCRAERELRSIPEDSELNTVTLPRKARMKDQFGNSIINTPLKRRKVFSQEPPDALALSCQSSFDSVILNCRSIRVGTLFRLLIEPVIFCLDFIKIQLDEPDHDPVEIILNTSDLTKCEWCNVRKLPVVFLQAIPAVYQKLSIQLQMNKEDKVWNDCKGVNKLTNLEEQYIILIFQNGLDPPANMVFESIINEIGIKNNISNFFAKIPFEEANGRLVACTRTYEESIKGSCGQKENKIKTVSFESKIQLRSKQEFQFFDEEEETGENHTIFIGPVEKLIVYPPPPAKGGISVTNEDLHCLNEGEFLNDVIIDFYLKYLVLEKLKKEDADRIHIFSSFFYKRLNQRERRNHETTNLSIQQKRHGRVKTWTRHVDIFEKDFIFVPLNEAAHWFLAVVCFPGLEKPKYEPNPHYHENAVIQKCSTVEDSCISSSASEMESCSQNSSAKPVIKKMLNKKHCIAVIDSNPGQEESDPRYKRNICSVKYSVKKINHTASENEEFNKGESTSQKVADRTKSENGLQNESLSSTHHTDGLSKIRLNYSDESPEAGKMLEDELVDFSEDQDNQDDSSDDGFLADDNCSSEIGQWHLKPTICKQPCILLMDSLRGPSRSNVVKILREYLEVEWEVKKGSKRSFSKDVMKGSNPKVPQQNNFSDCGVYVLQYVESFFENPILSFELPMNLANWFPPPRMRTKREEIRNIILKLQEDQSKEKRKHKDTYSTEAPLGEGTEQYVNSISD

HEK293 [3] = assay: cytotoxicity in HEK293T NF-kB-Luc cells, SAR follow-up, cytotoxicity control for NF-kB activator project, cell-based, resazurin fluorescence (AID 493251); type: functional; conditions: Homo sapiens
[4] = cytotoxicity in HEK-293T cells, dose response, cytotoxicity control for TCR NF-kB inhibitor project, luminescence, T-cell screen hits (AID 489026); type: functional, cell-based;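 also: cells exposed to compound about 14 hours before the viability readout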
HEK293 [5] = assay: inhibitors of LMP1-driven NF-kB reporter, dose response, cell-based, HEK293, luciferase, cherry-pick (AID 588343); type: functional; conditions: Homo sapiens
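For EC50 in this document: potency for inhibition of parasite growth.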

| Compound | IC50 [1] | IC50 [2] | IC50 (HEK293 [3]) | IC50 [4] | EC50 (cells) | AC50 (HEK293 [5]) |
| --- | --- | --- | --- | --- | --- | --- |
| CCOc1cccc(/C=N/NC(=S)Nc2ccccc2[N+](=O)[O-])c1O | 2.65 µM (active) | 10.3 µM (active) | – | – | – | – |
| CCCCC(=O)NC(c1ccc(N(CC)CC)cc1)c1ccc2cccnc2c1O (stereo unspecified) | – | – | 35 µM (inactive) | > 80 µM (inactive) | 0.241 µM (active) | 5.16 µM (active) |
